Measured values: US20130123355A1, “Fatty acids and metal ions compositions and uses thereof” (priority 2011, published 2013)

Experiment: Zn levels in cerebrospinal fluid of rats fed Zn compositions
Format: in vivo, Sprague-Dawley rats
Details: oral gavage, about 1 mg elemental zinc per kg per day for 3 weeks, compared with Zinc gluconate
Protocol: Sprague-Dawley rats are fed various […] compositions by oral gavage so as to provide about 1 mg elemental zinc per kg per day for 3 weeks. The zinc compositions include Zn-DHA, Zn-DHA-LysoPC and Zn-EPA. Control rats were administered equivalent molar amount of zinc gluconate. Cerebrospinal fluid is collected at the end of the treatment, and zinc is measured by atomic absorption spectroscopy.

SMILES	CSF levels of Zn
CC/C=C\C/C=C\C/C=C\C/C=C\C/C=C\CCCC(=O)[O-].CC/C=C\C/C=C\C/C=C\C/C=C\C/C=C\CCCC(=O)[O-].[Zn+2] [Zn-EPA]	higher
CC/C=C\C/C=C\C/C=C\C/C=C\C/C=C\C/C=C\CCC(=O)[O-].CC/C=C\C/C=C\C/C=C\C/C=C\C/C=C\C/C=C\CCC(=O)[O-].[Zn+2] [Zn-DHA]	higher
